Results on two compounds are retold here after US20170050957A1, “4-AMINO-6-(HETEROCYCLIC)PICOLINATES AND 6-AMINO-2-(HETEROCYCLIC)PYRIMIDINE-4-CARBOXYLATES AND THEIR USE AS HERBICIDES” (Dow AgroSciences LLC, priority 2013, published 2017).

Structures are written as SMILES.

This assay relates to ivyleaf morningglory (Ipomoea hederecea). Nature of the assay: Post-emergent Test I herbicidal activity. Format: in vivo. Here is the method: Post-emergent Test I Seeds test species were obtained from commercial suppliers and planted into a 5″-round pot containing soil-less media mix (metro-mix 360®, Sun Gro Horticulture). Postemergence treatments were planted 8-12 days prior to application and cultured in a greenhouse equipped with supplemental light sources to provide a 16 h photoperiod at 24-29° C. All pots were surface irrigated. Approximately 10 milligrams (mg) of each compound were dissolved in 1.3 mL acetone-DMSO (97:3, v/v) and diluted with 4.1 mL water-isopropanol-crop oil concentrate (78:20:2, v/v/v) containing 0.02% Triton X-155. Treatments were serial diluted with the above formulation solvent to provide 1.85, 0.926, 0.462 and 0.231 mg/mL of test compound delivered in 2.7 mL/pot (roughly equivalent to 4.0, 2.0, 1.0, and 0.5 kg/ha, respectively). Formulated compounds were applied using a DeVilbiss® compressed air sprayer at 2-4 psi. Following treatment, pots were returned to the greenhouse for the duration of the experiment. All pots were sub-irrigated as need to provide optimum growing conditions. All pots were fertilized one time per week by subirrigating with Peters Peat-Lite Special® fertilizer (20-10-20). Phytotoxicity ratings were obtained 10 days after treatment postemergence applications. All evaluations were made visually on a scale of 0 to 100 where 0 represents no activity and 100 represents complete plant death. Visual assessments of plant injury were made based on growth reduction, discoloration, leaf deformity and necrosis

Take `COC(=O)c1nc(-c2ccc3ccn(C)c3c2)c(F)c(N)c1Cl` [Compound 1.10]: the “Visual Growth Reduction (%) 10 Days After Application IPOHE” value (3.96 Kg ai/ha) is on record as “F (30-44)”.
Turning to `COC(=O)c1nc(-c2ccc3sccc3c2)cc(N)c1Cl` [Compound 3.05], the “Visual Growth Reduction (%) 10 Days After Application IPOHE” value (4 Kg ai/ha) is reported as “B (85-94)”.
